In brackets after ≈: the same amount, converted by molar mass.
Experiments:
[1] = Therapeutic index measured as ratio of EC50 for Davis/CC50 for HEL 299; conditions: human; read-out: Therapeutic index
[2] = test system: Human betaherpesvirus 5; assay: Concentration of compound required to inhibit 50% of HCMV strain Davis induced cytopathic effect; type: functional, organism-based
[3] = Therapeutic index measured as ratio of […]; conditions: human; read-out: Therapeutic index
[4] = test system: HEL 299; assay: Compound was tested for its cytotoxicity against human embryonic lung fibroblast cells (HEL 299) by MTT dye reduction assay; type: functional
[5] = test system: Human betaherpesvirus 5; assay: Concentration of compound required to inhibit 50% of HCMV strain AD-169 induced cytopathic effect; type: functional, organism-based

Row | SMILES | selectivity ratio [1] | EC50 [2] [µg/mL] | selectivity ratio [3] | CC50 [4] [µg/mL] | EC50 [5] [µg/mL]
1 | CCOP(=O)(O)COCOn1cnc2c(O)nc(N)nc21 | > 700 | 0.6 (≈ 1.88 µM) | > 200 | > 400 | 1.8 (≈ 5.64 µM)
2 | Nc1nc2c(ncn2COC(CO)CO)c(=O)[nH]1 [GANCICLOVIR] | > 500 | 0.8 (≈ 3.13 µM) | > 200 | > 400 | 1.9 (≈ 7.44 µM)

From ChEMBL document CHEMBL1127976, “Synthesis and anti-HCMV activity of 9-[[(ethoxyhydroxyphosphinyl)methoxy]methoxy]guanine, an isostere of PMEG monoethyl ester” (Bioorg Med Chem Lett, 1994)
